System: primary hepatocytes isolated from rats
Experiment: Hepatocyte protective effect against doxorubicin-induced hepatocyte toxicity (WST-1 viability)
Type: cell-based
Conditions: Hepatocyte; against doxorubicin treatment; primary rat hepatocytes pretreated with compound 30 min; viability by WST-1 after 24-48 hours; concentration giving 50% of maximum protective effect
Method: Various endogenous/exogenous attacks on cells trigger the mechanisms of cell death which is broadly classified into two types—i.e., apoptosis or necrosis. Using these cell death mechanisms, in the present experimental example, primary hepatocytes isolated from rats were treated with drugs which were clinically shown to result in serious side-effects of hepatocyte toxicity or various chemicals which cause cell death, and the compounds synthesized in the Examples were estimated for their hepatocyte protective effects, after 24-48 hours. The substances used to cause hepatocyte death include CCl4, ActD, H2O2, doxorubicin, anti-Fas Ab/Actinomycin D, acetaminophen, EtOH, CdCl2, palmitate, stearate, cyclophosphamide, terfenadine, diclofenac, simvastatin, and adefovir. Primary hepatocytes were isolated using the method of Seglen P O (Experimental Cell Research 74 (1972), pp. 450-454). Briefly, hepatocytes were isolated according to the two-step collagenase perfusion method, and dead cells were removed by low speed (500 rpm) centrifugation for 10 min using percoll gradient (Kreamer B L et al., In Vitro Cellular & Developmental Biology 22 (1986), pp. 201-211). During this step, the viability of cells was maintained 90% or above. The cells were suspended in HepatoZYME media (Gibco BRL), and the number of cells was counted. 1.5×10^4 cells in 100 μl were placed into the collagen-coated 96-well plate (BD Biocoat), and adhered on the bottom for 3-4 hours.
In order to assess the hepatocyte protective effect, the above adhered cells were pretreated with the Example compounds for 30 min. At this time, the concentration of the Example compounds was serially diluted by 2-fold or 3-fold over 5 steps starting from 30 μM, 10 μM or 1 μM depending on the experiments, and the final concentration of DMSO was adjusted to 0.2%. 30 min after the treatment by the compounds, the cells were treated by the substances deriving hepatocyte death or hepatotoxic drugs at the concentrations indicated in Table 1. After 24-48 hours, the viability of cells was determined to estimate the hepatocyte protective effects. The viability of cells was determined using the WST-1 (MK-400, […]) method by the absorbance at 440 nm. Hepatocyte protective effects of the Example compounds were represented by “EC50” which was calculated from measured values. “EC50” herein means the concentration of the compound at which 50% of maximum protective effect is observed in the experiment.

Row | SMILES | EC50 [nM]
1 | NCC1CCN(C(=O)c2cc3cc(Cl)cc(N(CC4CC4)CC4CC4)c3[nH]2)C1 (centres unmarked) [Example 53, (3-Aminomethyl-pyrrolidin-1-yl)-[7-(bis-cyclopropylmethyl-amino)-5-chloro-1H-indol-2-yl]-methanone] | 710
2 | Cc1cc(NC2CCOCC2)c2[nH]c(C(=O)N3CC[C@H](C(=O)O)C3)cc2c1 [Example 38, (S)-1-[5-methyl-7-(tetrahydropyran-4-ylamino)-1H-indol-2-carbonyl]-pyrrolidin-3-carboxylic acid] | 330
3 | N[C@H]1CCN(C(=O)c2cc3cc(Cl)cc(NC4CCCC4)c3[nH]2)C1 [Example 55, ((S)-3-amino-pyrrolidin-1-yl)-(5-chloro-7-cyclopentylamino-1H-indol-2-yl}-methanone] | 430
4 | CC(C)CCNc1cc(Cl)cc2cc(C(=O)N3CCC(CN)C3)[nH]c12 (centres unmarked) [Example 46, (3-Aminomethyl-pyrrolidin-1-yl)-[5-chloro-7-(3-methyl-butylamino)-1H-indol-2-yl]-methanone] | 290
5 | Cc1cc(NC2CCCC2)c2[nH]c(C(=O)N3CCNCC3)cc2c1 [Example 29, (7-Cyclopentylamino-5-methyl-1H-indol-2-yl)-piperazin-4-yl-methanone] | 200
6 | O=C(Nc1cccc(CN2CCOCC2)c1)c1cc2cc(Cl)cc(NC3CCNCC3)c2[nH]1 [Example 13, 5-Chloro-7-(piperidin-4-ylamino)-1H-indol-2-carboxylic acid (3-morpholin-4-ylmethyl-phenyl)-amide] | 150
7 | CC(C)CCN(CCC(C)C)c1cc(Cl)cc2cc(C(=O)N3C[C@@H](CN4CCCC4)[C@H](c4ccc(F)cc4F)C3)[nH]c12 [Example 60, {7-[Bis-(3-methyl-butyl)-amino]-5-chloro-1H-indol-2-yl}-[(3R,4R)-3-(2,4-difluoro-phenyl)-4-pyrrolidin-1-ylmethyl-pyrrolidin-1-yl]-methanone] | 250
8 | CCCCCNc1cc(Cl)cc2cc(C(=O)N3CCC(CN)C3)[nH]c12 (centres unmarked) [Example 50, (3-Aminomethyl-pyrrolidin-1-yl)-(5-chloro-7-pentylamino-1H-indol-2-yl]-methanone] | 175

Same assay, conditions: against doxorubicin treatment; primary rat hepatocytes pretreated with compound 30 min; viability by WST-1 after 24-48 hours; concentration giving 50% of maximum protective effect

Row | SMILES | EC50 [nM]
9 | NCC1CCCN(C(=O)c2cc3cc(Cl)cc(NC4CCCC4)c3[nH]2)C1 (centres unmarked) [Example 52] | 210
10 | NCC1CCN(C(=O)c2cc3cc(Cl)cc(NC4CCCCC4)c3[nH]2)C1 (centres unmarked) [Example 51] | 330
11 | NCC1CCN(C(=O)c2cc3cc(Cl)cc(NCCc4ccccc4)c3[nH]2)C1 (centres unmarked) [Example 49, (3-Aminomethyl-pyrrolidin-1-yl)-(5-chloro-7-penethylamino-1H-indol-2-yl]-methanone] | 330

Reference: US9868731B2, “Indole amide compound as inhibitor of necrosis” (LG CHEM, LTD., priority 2013, dated 2018)
